From patent US20240270741A1 (Cogent Biosciences, Inc., priority 2023, published 2024) come the findings set out here.

The pIC50 is the negative decadic logarithm of the IC50, by convention in mol/L. Lower therefore signals a large IC50. As a reminder, the IC50 is the concentration at which inhibition is half-maximal.

For one assay, the target named is FGFR2 N549H (Homo sapiens, UniProt P21802, N549H). Description: FGFR mutant enzyme assay (HTRF KinEASE-TK), FGFR2 N549H. Particulars: Table 4. The format is biochemical. The text has this:
(§1) (Catalogue number 62TK0PEC).
(TR-FRET usually uses a lanthanide donor and a delayed reading to cut background.)

The next assay has as its target FGFR2 (Homo sapiens, UniProt P21802). In words: FGFR wild type enzyme assay (HTRF KinEASE-TK), FGFR2. The following applies: for pIC50: FGFR2 Enz, Table 4; for IC50: Enz FGFR2 (nM).
The next assay concerns the target FGFR2-WT (Homo sapiens, UniProt P21802). Description: Phosphorylated FGFR2-WT (pFGFR2-WT) cell assay, KATOIII cells. Type of assay: cell-based. Particulars: Table 4. As for the experimental part:
Phosphorylated FGFR2-WT (pFGFR2-WT) Cell Assay:
KATOIII cells were grown in the appropriate growth medium, IMDM supplemented with 20% fetal bovine serum. Cells were seeded into a 384-well at 1×10^5 cells/25 μL/well. Cells were treated with compound using three-fold serial dilutions at final concentrations ranging from 10 μM to 0.5 nM. Compound was incubated on cells for 1 hour at 37° C., 5% CO2.
Following the 1-hour incubation with compounds, cell lysates were prepared and phospho FGFR2 was measured using the HTRF Phospho-FGFR2 (TYR653/654) Detection Kits (CisBio, cat #64FGFR2Y6PEG). 8 μL of cell lysis buffer (4×) supplied with 1× Phospho and Total protein blocking reagent (CisBio, cat #64FGFR2Y6PEG, CisBio, cat #64KB1AAC) was then added to the wells. Cells were incubated with lysis buffer for 40 minutes at 4° C. under shaking conditions. Plates were centrifuged at 1500 rpm for 3 min and then 16 μL of cell lysate was transferred from the cell-culture plate to a small volume detection plate with the added premixed antibody solutions (4 μL) (CisBio, cat #64FGFR2Y6PEG). Plates were centrifuged at 1000 rpm for 1 min then incubated at 25° ° C. for 120 min, then overnight at 4° C. Plates were read on the EnVision multimode plate reader via HTRF dual wavelength detection. One hundred percent of control (POC) was determined using DMSO treated samples, and 0 POC was determined using the top concentration of a control compound. A 4-parameter logistic curve was fit to the POC values as a function of compound concentration to determine the IC50 value.

The target of the next assay is FGFR2 V564F (Homo sapiens, UniProt P21802, V564F). In words: FGFR mutant enzyme assay (HTRF KinEASE-TK), FGFR2 V564F. The format is biochemical. Particulars: Table 4.
Sequence of FGFR2 V564F (P21802 399-821 V564F limits assumed): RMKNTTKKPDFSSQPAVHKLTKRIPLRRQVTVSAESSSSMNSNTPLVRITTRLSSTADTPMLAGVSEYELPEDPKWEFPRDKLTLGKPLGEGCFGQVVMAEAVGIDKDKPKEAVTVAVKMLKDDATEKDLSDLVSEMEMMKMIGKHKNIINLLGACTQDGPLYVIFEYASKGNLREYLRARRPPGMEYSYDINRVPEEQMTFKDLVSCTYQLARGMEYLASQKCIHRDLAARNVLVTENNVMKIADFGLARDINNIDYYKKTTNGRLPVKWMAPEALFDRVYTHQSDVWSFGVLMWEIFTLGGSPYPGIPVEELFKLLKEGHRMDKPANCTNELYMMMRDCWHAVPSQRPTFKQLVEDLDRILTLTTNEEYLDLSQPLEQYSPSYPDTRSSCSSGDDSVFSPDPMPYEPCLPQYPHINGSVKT
Text: as §1

Another assay addresses FGFR2 V564I (Homo sapiens, UniProt P21802, V564I). In words: FGFR mutant enzyme assay (HTRF KinEASE-TK), FGFR2 V564I. Type of assay: biochemical. Particulars: Table 4.
Text: as §1

pIC50: −log10 of the molar value. Where a name gives a salt, the structure may show the parent alone.

Sequence of FGFR2 (P21802 399-821 limits assumed): as the sequence (P21802 399-821 V564F limits assumed) above, with F166V counted along it
Sequence of FGFR2-WT (P21802 22-821): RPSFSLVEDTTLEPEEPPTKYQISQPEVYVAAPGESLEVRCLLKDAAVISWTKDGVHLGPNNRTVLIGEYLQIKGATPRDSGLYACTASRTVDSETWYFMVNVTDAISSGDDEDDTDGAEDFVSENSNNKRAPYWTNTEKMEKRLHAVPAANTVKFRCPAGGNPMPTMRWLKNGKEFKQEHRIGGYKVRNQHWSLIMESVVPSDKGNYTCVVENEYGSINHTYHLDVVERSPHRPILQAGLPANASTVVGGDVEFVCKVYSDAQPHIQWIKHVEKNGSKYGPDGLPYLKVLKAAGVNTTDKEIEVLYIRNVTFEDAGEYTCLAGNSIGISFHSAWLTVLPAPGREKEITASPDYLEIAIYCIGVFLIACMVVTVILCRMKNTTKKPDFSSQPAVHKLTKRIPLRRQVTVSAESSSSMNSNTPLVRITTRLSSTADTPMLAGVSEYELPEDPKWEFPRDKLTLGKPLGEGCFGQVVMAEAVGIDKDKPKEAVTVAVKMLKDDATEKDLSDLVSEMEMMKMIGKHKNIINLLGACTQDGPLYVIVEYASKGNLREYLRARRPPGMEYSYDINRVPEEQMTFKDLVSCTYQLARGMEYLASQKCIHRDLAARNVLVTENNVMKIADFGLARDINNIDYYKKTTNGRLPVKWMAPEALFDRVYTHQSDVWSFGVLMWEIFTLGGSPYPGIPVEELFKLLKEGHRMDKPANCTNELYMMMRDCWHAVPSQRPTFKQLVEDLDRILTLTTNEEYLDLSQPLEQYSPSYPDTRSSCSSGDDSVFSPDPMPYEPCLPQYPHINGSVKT
Sequence of FGFR2 N549H (P21802 399-821 N549H limits assumed): as the sequence (P21802 399-821 V564F limits assumed) above, with N151H, F166V counted along it
Sequence of FGFR2 V564I (P21802 399-821 V564I limits assumed): as the sequence (P21802 399-821 V564F limits assumed) above, with F166I counted along it

On to `N#Cc1cnn2cc(-c3cnn([C@H]4CCCNC4)c3)cc(Sc3ccccn3)c12` [Example 1, 6-[1-[(3S)-3-Piperidyl]pyrazol-4-yl]-4-(2-pyridylsulfanyl) pyrazolo[1,5-a]pyridine-3-carbonitrile], for which the negative logarithm of the IC50 (pIC50) is 8.82 on FGFR2 N549H; 8.52 against FGFR2; 7.60 at FGFR2-WT; 8.52 on FGFR2 V564F; 8.22 at FGFR2 V564I.

For `Cc1nc(Sc2cc(-c3cnn(C4CCN(C)CC4)c3C)cn3ncc(C#N)c23)ccc1F` [Example 128], the pIC50 against FGFR2 N549H is 8.40; at FGFR2, 9.92; at FGFR2-WT, 7.39; at FGFR2 V564F, 8.05; on FGFR2 V564I, 7.92. This compound also had a concentration for half-maximal inhibition (IC50) against FGFR2 of 5 nM.

Consider `CN[C@H]1CC[C@@H](n2ncc(-c3cc(Sc4ccccc4C#N)c4c(C#N)cnn4c3)c2C)CC1` [Example 117, -[(5-fluoro-2-methyl-4-pyridyl)sulfany1]-6-[5-methyl-1-(4-piperidyl)pyrazol-4-yl]pyrazolo[1,5-a]pyridine-3-carbonitrile], for which the pIC50 on FGFR2 N549H is 9.70; on FGFR2, 9.52; at FGFR2-WT, 7.55; on FGFR2 V564F, 9.30; at FGFR2 V564I it was 9.00. In addition, half-maximal inhibition at FGFR2 (IC50) required 0.3 nM.

In the case of `Cc1c(-c2cc(Sc3cccc(F)c3C#N)c3c(C#N)cnn3c2)cnn1C1CCNCC1` [Example 130, 4-(2-cyano-3-fluoro-phenyl)sulfanyl-6-[5-methyl-1-(4-piperidyl)pyrazol-4-yl]pyrazolo[1,5-a]pyridine-3-carbonitrile], the pIC50 against FGFR2 N549H was 8.52; at FGFR2, 9.00; against FGFR2-WT it was 6.93; against FGFR2 V564F it was 8.40; at FGFR2 V564I, 8.30. Moreover, the midpoint of inhibition against FGFR2, the IC50, lay at 2 nM.

For `Cc1cccc(Sc2cc(-c3cnn(C4CCN(C)CC4)c3C)cn3ncc(C#N)c23)c1C#N` [Example 355, 4-((2-cyano-3-methylphenyl)thio)-6-(5-methyl-1-(1-methylpiperidin-4-yl)-1H-pyrazol-4-yl)pyrazolo[1,5-a]pyridine-3-carbonitrile], on FGFR2 (FGFR2 wild type enzyme assay), the IC50 turned out to be 2 nM. That is a single-digit nanomolar value.

At FGFR2, `Cc1c(-c2cc(Sc3ncccc3F)c3c(C#N)cnn3c2)cnn1[C@@H]1CCCNC1` [Example 102, 4-[(3-fluoro-2-pyridyl)sulfanyl]-6-[5-methyl-1-[(3R)-3-piperidyl]pyrazol-4-yl]pyrazolo[1,5-a]pyridine-3-carbonitrile] came in with an IC50 of 6 nM.

As to `Cn1cc(-c2cc(Sc3ccc(F)cc3C#N)c3c(C#N)cnn3c2)cn1` [Example 558, 4-((2-cyano-4-fluorophenyl)thio)-6-(1-methyl-1H-pyrazol-4-yl)pyrazolo[1,5-a]pyridine-3-carbonitrile], on FGFR2 (FGFR2 wild type enzyme assay), it took 2 nM to reach half-maximal inhibition (IC50).

For the compound `CC(=O)N1CC[C@H](n2cc(-c3cc(Sc4ccccc4C#N)c4c(C#N)cnn4c3)cn2)C1` [Example 453, (S)-6-(1-(1-acetylpyrrolidin-3-yl)-1H-pyrazol-4-yl)-4-((2-cyanophenyl)thio)pyrazolo [1,5-a]pyridine-3-carbonitrile], on FGFR2 (FGFR2 wild type enzyme assay), the IC50 came to 0.4 nM.

In turn, `Cc1c(-c2cc(Sc3ccccc3C#N)c3c(C#N)cnn3c2)cnn1C[C@H]1CCCNC1` [Example 201, (S)-4-((2-cyanophenyl)thio)-6-(5-methyl-1-(piperidin-3-ylmethyl)-1H-pyrazol-4-yl)pyrazolo[1,5-a]pyridine-3-carbonitrile] gave a half-inhibitory concentration (IC50) against FGFR2 (FGFR2 wild type enzyme) of 2 nM.

Compound `COC(=O)N1CCC(n2cc(-c3cc(Sc4ccccc4C#N)c4c(C#N)cnn4c3)cn2)CC1` [Example 481, methyl 4-(4-(3-cyano-4-((2-cyanophenyl)thio)pyrazolo [1,5-a]pyridin-6-yl)-1H-pyrazol-1-yl)piperidine-1-carboxylate] came in with an IC50 against FGFR2 (FGFR2 wild type enzyme assay) of 4 nM.

Take `CN[C@]1(C)CC[C@H](n2ncc(-c3cc(Sc4ccc(F)cn4)c4c(C#N)cnn4c3)c2C)CC1` [Example 292, 4-((5-fluoropyridin-2-yl)thio)-6-(5-methyl-1-((1s,4s)-4-methyl-4-(methylamino)cyclohexyl)-1H-pyrazol-4-yl)pyrazolo[1,5-a]pyridine-3-carbonitrile]: the IC50 at FGFR2 (FGFR2 wild type enzyme) is 3 nM.

`Cc1cc(Sc2cc(-c3cnn(C4CCNCC4)c3)cn3ncc(C#N)c23)n(C)n1` [Example 66, 4-((1,3-dimethyl-1H-pyrazol-5-yl)thio)-6-(1-(piperidin-4-yl)-1H-pyrazol-4-yl)pyrazolo[1,5-a]pyridine-3-carbonitrile, HCl] came in with an IC50 at FGFR2 of 12 nM.

For `N#Cc1ccccc1Sc1cc(-c2ccc(N3CCNCC3)nc2)cn2ncc(C#N)c12` [Example 526, 4-((2-cyanophenyl)thio)-6-(6-(piperazin-1-yl)pyridin-3-yl)pyrazolo[1,5-a]pyridine-3-carbonitrile], half-maximal inhibition against FGFR2 (FGFR2 wild type enzyme assay) (IC50) was put at 1 nM.

On FGFR2 (FGFR2 wild type enzyme), `CC(=O)N1[C@@H]2CC[C@H]1C[C@H](n1ncc(-c3cc(Sc4ncccc4F)c4c(C#N)cnn4c3)c1C)C2` [Example 263, 6-(1-((1R,3s,5S)-8-acetyl-8-azabicyclo[3.2.1]octan-3-yl)-5-methyl-1H-pyrazol-4-yl)-4-((3-fluoropyridin-2-yl)thio)pyrazolo[1,5-a]pyridine-3-carbonitrile] yielded a half-inhibitory concentration (IC50) of 3 nM.

With `CC(=O)N1CCC[C@H](n2ncc(-c3cc(Sc4ccc(F)cc4C#N)c4c(C#N)cnn4c3)c2C)C1` [Example 334, (S)-6-(1-(1-acetylpiperidin-3-yl)-5-methyl-1H-pyrazol-4-yl)-4-((2-cyano-4-fluorophenyl)thio)pyrazolo [1,5-a]pyridine-3-carbonitrile], at FGFR2 (FGFR2 wild type enzyme assay), the IC50 came to 1 nM.

On FGFR2 (FGFR2 wild type enzyme assay), `CN(C)CCn1cc(-c2cc(Sc3ccccc3C#N)c3c(C#N)cnn3c2)cn1` [Example 598, 4-((2-cyanophenyl)thio)-6-(1-(2-(dimethylamino)ethyl)-1H-pyrazol-4-yl)pyrazolo[1,5-a]pryidine-3-carbontrile] displayed an IC50 of 1 nM.

Compound `CC(=O)N1CCC(n2ncc(-c3cc(Sc4ccc(F)cc4C#N)c4c(C#N)cnn4c3)c2C)CC1` [Example 338, 6-(1-(1-acetylpiperidin-4-yl)-5-methyl-1H-pyrazol-4-yl)-4-((2-cyano-4-fluorophenyl)thio)pyrazolo [1,5-a]pyridine-3-carbonitrile] registered an IC50 on FGFR2 (FGFR2 wild type enzyme assay) of 1 nM.

On to `Cc1c(-c2cc(Sc3ncccc3F)c3c(C#N)cnn3c2)cnn1[C@H]1CC[C@@H](CO)CC1` [Example 281, 4-((3-fluoropyridin-2-yl)thio)-6-(1-((1s,4s)-4-(hydroxymethyl)cyclohex-yl)-5-methyl-1H-pyrazol-4-yl)pyrazolo[1,5-a]pyridine-3-carbonitril], for which the IC50 at FGFR2 (FGFR2 wild type enzyme) came out at 2 nM.

Compound `N#Cc1ccccc1Sc1cc(-c2ccc(N3CCC(O)CC3)nc2)cn2ncc(C#N)c12` [Example 548, 4-((2-cyanophenyl)thio)-6-(6-(4-hydroxypiperidin-1-yl)pyridin-3-yl)pyrazolo[1,5-a]pyridine-3-carbonitrile] came in with a concentration for half-maximal inhibition (IC50) at FGFR2 (FGFR2 wild type enzyme assay) of 0.4 nM.
